From patent US20260167619A2, “INDOLINE COMPOUNDS AND DERIVATIVES AS EGFR INHIBITORS” (BeOne Medicines I GmbH, priority 2020, published 2026)

Key:
[1] = target: T1, EGFR (aa668-1210, Invitrogen) (Homo sapiens, UniProt P00533); assay: Biochemical EGFR inhibition assay (TR-FRET), wild-type EGFR; settings: ATP at Km, 15 min pre-incubation, 60 min reaction; read-out: WT (Km ATP) IC50
T1 construct: EGFR (aa668-1210, Invitrogen); purchased Invitrogen
Method: (§1) Compounds were tested for inhibition of kinase activity against EGFR (aa668-1210, Invitrogen), EGFR(L858R_T790M_C797S) (aa695-end, Invitrogen) and EGFR(Dell9_T790M_C797S) (aa 669-1210, in house) in assays based on time-resolved fluorescence-resonance energy transfer (TR-FRET) methodology. Recombinant EGFR, EGFR(L858R_T790M_C797S) or EGFR(Dell9_T790M_C797S) was pre-incubated with the compounds at room temperature for 15 minutes in an assay buffer containing 50 mM HEPES pH7.5, 10 mM MgCl2, 2 mM DTT, 1 mM EGTA, 0.1% BSA, 0.01% Tween-20. The reactions were initiated by the addition of ATP (at the concentration of ATP Km) and substrate Biotin-Poly GT. After reaction at room temperature for 60 minutes, stop/detection solution was added. The stop/detection solution contained Eu^3+ cryptate-conjugated mouse monoclonal antibody (PT66) anti-phosphotyrosine and XL665-conjugated streptavidin in buffer containing 50 mM HEPES pH7.0, 800 mM KF, 20 mM EDTA, and 0.1% BSA. Plates were sealed and incubated at room temperature for 1 hour, and the TR-FRET signals (ratio of fluorescence emission at 665 nm over emission at 620 nm with excitation at 337 nm wavelength) were recorded on a PHERAstar FS plate reader (BMG Labtech). The residual enzyme activity in presence of increasing concentrations of compounds was calculated based on the ratio of fluorescence at 665 nm to that at 620 nm. The IC50 for each compound was derived from fitting the data to the four-parameter logistic equation by Dotmatics or Graphpad Prism software.
(§2) These biochemical EGFR enzyme form compound dose-response assays quantify the kinase activity via phosphorylation of a tagged poly-GT substrate. The results of the assay are provided as IC50 values.

[2] = target: T2, EGFR(L858R_T790M_C797S) (aa695-end, Invitrogen) (Homo sapiens, UniProt P00533, C797S/L858R/T790M); assay: Biochemical EGFR inhibition assay (TR-FRET), L858R/T790M/C797S mutant; settings: ATP at Km, 15 min pre-incubation, 60 min reaction; read-out: LR_TM_CS (Km ATP) IC50
T2 construct: purchased Invitrogen
T2 sequence (P00533 695-1210 T790M/C797S/L858R): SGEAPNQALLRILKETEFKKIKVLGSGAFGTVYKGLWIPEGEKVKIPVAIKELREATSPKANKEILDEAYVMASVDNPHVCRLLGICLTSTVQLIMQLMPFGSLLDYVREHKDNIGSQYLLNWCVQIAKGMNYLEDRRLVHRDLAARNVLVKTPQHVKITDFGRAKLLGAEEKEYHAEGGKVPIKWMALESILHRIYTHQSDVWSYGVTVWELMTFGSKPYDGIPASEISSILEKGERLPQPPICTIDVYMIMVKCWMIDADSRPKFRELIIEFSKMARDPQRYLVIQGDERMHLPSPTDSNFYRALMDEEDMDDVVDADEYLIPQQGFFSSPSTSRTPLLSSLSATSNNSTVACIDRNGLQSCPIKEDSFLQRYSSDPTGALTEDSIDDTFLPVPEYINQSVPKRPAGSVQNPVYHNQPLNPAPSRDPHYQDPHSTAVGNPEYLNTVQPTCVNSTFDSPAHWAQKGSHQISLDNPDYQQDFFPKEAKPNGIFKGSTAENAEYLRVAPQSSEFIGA
Method: as §1, §2

[3] = target: EGFR(Dell9_T790M_C797S) (aa 669-1210, in house) (Homo sapiens, UniProt P00533, T790M/C797S, form not given); assay: Biochemical EGFR inhibition assay (TR-FRET), Del19/T790M/C797S mutant; settings: ATP at Km, 15 min pre-incubation, 60 min reaction; read-out: Del_TM_CS (Km ATP) IC50
Method: as §1, §2

[4] = target: BaF3-WT cells (Homo sapiens, UniProt P00533); assay: Cell antiproliferation assay (CellTiter-Glo), BaF3-WT; assay type: cell-based; settings: 48 h treatment, read-out: BaF3-WT IC50
BaF3-WT cells, sequence (P00533 whole entry, change not shown): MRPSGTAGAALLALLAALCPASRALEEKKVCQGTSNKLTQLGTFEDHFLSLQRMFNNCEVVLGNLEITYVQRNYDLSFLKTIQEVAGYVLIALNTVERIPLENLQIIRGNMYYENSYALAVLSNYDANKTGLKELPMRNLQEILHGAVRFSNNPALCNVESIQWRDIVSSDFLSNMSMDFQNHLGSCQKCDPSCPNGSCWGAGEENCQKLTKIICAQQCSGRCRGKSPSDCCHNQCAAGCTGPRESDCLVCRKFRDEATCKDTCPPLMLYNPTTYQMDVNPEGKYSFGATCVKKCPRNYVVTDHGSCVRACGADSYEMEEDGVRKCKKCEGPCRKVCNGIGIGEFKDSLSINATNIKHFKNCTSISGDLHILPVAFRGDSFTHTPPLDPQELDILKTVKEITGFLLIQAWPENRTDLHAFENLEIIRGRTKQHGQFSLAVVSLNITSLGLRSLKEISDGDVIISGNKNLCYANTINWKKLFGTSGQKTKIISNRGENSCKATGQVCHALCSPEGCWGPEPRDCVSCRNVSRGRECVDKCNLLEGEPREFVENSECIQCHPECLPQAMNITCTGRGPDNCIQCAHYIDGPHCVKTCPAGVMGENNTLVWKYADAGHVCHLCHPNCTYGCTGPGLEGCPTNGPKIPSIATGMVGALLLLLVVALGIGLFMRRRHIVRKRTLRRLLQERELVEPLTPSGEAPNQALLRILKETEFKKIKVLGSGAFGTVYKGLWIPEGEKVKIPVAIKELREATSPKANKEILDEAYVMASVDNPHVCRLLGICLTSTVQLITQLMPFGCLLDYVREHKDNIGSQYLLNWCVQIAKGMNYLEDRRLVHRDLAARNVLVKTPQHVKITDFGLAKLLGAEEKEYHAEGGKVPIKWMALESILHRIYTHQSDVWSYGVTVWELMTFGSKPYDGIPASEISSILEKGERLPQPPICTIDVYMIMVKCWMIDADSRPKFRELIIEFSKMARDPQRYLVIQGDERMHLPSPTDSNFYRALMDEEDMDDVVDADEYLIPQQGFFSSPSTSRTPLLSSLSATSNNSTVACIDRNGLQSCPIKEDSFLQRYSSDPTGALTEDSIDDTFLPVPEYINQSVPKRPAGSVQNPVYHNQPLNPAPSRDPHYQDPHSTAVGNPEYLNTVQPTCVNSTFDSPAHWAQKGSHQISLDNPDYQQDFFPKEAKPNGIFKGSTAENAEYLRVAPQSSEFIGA
Method: (§3) BaF3 cells are treated with compounds diluted in 0.2% DMSO, dilution is done according to the following protocol: (1) make 500× stock solution in DMSO from 5 mM by 5-fold dilution, total 8 doses were included; (2) make 10× solution in cell culture medium by transferring 2 μl 500× stock solution into 98 μl medium; (3) 10 μl of 10× solution is added to cells and incubate for 48 h.
(§4) After 48 h treatment, add 30 μl CellTiter-Glo reagent[CellTiter-Glo® 2.0, (Promega, Cat #G9242)] to each well; seal the plate and incubate 2 min at room temperature on a plate shaker; Allow the plate to incubate at room temperature for 10 minutes to stabilize the luminescent signal. Record luminescence on BMG PheraStar with luminescence protocol.
(§5) The IC50 value of a compound can be obtained by fitting the following equation
(§6) Wherein, X and Y are known values, and IC50, Hillslope, Top and Bottom are the parameters obtained by fitting with software. Y is the inhibition percentage (calculated from the equation), X is the concentration of the compound; IC50 is the concentration of the compound when the 50% inhibition is reached. The smaller the IC50 value is, the stronger the inhibitory ability of the compound is. Vice versa, the higher the IC50 value is, the weaker the ability the inhibitory ability of the compound is; Hillslope represents the slope of the fitted curve, generally around 1 *; Bottom represents the minimum value of the curve obtained by data fitting, which is generally 0%±20%; Top represents the maximum value of the curve obtained by data fitting, which is generally 100%±20%. The experimental data were fitted by calculating and analyzing with Dotmatics data analysis software.

[5] = target: BaF3-LR_TM_CS cells (Homo sapiens, UniProt P00533, T790M/C797S/L858R, cells depend on it); assay: Cell antiproliferation assay (CellTiter-Glo), BaF3-LR_TM_CS; assay type: cell-based; settings: 48 h treatment, read-out: BaF3-LR_TM_CS IC50
BaF3-LR_TM_CS cells, sequence (P00533 whole entry T790M/C797S/L858R): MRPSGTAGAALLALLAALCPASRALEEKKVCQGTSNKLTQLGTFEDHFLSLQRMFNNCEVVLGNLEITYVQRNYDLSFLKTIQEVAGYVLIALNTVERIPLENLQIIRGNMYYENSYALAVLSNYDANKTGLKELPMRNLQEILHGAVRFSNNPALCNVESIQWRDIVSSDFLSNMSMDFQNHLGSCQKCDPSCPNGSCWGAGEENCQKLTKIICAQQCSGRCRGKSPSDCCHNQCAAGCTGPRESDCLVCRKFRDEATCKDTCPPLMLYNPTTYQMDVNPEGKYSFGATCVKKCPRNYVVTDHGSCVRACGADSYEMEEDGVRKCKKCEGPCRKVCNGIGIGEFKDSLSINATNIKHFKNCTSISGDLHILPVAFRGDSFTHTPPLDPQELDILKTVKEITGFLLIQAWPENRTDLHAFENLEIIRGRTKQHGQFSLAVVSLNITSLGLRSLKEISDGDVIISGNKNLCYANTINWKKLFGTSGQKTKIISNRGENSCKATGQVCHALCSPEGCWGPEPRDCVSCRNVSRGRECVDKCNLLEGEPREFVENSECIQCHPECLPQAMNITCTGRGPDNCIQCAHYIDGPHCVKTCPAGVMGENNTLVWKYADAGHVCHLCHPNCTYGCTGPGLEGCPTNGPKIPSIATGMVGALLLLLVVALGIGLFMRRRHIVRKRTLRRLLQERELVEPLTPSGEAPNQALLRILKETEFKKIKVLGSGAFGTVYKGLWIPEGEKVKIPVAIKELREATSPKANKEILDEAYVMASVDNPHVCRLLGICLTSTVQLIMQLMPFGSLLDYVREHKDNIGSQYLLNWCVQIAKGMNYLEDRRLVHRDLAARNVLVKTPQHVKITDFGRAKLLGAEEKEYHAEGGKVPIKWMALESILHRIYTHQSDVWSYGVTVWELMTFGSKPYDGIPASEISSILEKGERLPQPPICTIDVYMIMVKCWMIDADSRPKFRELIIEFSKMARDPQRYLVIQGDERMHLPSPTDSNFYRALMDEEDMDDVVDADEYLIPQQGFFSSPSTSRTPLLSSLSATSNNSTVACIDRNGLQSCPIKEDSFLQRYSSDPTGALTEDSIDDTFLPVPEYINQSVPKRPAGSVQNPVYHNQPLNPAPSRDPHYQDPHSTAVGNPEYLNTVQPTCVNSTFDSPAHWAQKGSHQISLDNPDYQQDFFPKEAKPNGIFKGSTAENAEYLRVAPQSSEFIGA
Method: as §3, §4, §5, §6

[6] = target: BaF3-Del_TM_CS cells (Homo sapiens, UniProt P00533, T790M/C797S, cells depend on it, form not given); assay: Cell antiproliferation assay (CellTiter-Glo), BaF3-Del_TM_CS; assay type: cell-based; settings: 48 h treatment, read-out: BaF3-Del_TM_CS IC50
BaF3-Del_TM_CS cells, sequence (P00533 with tags, fused parts or gaps DEL746-750/T790M/C797S, form open): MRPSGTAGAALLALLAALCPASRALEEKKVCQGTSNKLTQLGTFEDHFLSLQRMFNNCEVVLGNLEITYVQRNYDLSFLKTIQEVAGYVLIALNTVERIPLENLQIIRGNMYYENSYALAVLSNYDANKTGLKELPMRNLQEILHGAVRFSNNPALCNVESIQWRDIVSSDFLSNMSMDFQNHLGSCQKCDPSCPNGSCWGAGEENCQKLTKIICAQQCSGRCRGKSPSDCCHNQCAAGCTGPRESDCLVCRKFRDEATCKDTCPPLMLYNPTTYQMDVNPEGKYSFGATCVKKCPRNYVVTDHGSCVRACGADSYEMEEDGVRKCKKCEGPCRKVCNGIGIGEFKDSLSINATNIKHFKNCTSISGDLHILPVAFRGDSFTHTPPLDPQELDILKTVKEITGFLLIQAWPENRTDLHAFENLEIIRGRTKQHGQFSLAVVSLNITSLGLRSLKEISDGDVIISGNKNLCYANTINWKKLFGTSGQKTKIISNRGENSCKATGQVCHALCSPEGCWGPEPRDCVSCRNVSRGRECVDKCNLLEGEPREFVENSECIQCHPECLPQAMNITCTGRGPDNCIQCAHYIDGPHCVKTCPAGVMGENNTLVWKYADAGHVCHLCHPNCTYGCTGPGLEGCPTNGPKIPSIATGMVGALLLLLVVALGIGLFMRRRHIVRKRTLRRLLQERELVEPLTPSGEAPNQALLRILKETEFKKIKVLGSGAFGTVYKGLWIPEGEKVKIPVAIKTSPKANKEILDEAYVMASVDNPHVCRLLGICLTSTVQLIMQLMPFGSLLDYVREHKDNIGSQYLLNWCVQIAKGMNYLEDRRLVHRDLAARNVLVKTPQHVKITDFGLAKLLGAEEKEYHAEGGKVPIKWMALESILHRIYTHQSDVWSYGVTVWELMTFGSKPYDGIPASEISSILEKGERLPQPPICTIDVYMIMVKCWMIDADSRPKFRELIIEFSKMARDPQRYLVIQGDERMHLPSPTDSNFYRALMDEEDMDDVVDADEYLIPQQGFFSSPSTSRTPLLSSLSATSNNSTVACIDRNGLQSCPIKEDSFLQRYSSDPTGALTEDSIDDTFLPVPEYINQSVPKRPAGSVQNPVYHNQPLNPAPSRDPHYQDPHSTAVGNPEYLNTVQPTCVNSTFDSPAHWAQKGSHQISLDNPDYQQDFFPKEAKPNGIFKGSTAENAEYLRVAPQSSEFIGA
Method: as §3, §4, §5, §6

T1 sequence (P00533 668-1210): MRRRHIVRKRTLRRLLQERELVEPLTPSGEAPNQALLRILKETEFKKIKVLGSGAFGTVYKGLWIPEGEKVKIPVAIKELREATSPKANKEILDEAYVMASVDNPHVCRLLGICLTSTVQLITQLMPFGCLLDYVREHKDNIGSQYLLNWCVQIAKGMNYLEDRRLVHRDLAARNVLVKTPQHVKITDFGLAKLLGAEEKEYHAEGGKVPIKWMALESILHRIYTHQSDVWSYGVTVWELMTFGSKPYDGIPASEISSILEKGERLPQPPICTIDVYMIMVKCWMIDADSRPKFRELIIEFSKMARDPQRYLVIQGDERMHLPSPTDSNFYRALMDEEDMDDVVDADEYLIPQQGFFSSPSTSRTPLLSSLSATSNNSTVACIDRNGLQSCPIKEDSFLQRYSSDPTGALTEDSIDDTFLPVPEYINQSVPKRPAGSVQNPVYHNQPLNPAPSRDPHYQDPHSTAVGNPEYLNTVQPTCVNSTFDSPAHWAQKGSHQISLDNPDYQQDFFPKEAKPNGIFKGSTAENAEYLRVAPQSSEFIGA

| Compound | IC50 [1] [nM] | IC50 [2] [nM] | IC50 [3] [nM] | GI50 [4] [nM] | GI50 [5] [nM] | GI50 [6] [nM] |
| --- | --- | --- | --- | --- | --- | --- |
| COc1cc(C2CCC(N(C)C)CC2)c(C)cc1Nc1nc(Nc2cccc3c2N(S(C)(=O)=O)CC3)c2cc[nH]c2n1 (stereo not drawn) [Example 104, N^2-(4-(4-(dimethylamino)cyclohexyl)-2-methoxy-5-methylphenyl)-N^4-(1-(methylsulfonyl)indolin-7-yl)-7H-pyrrolo[2,3-d]pyrimidine-2,4-diamine] | 332 | 3.4 | 5.3 | 1490 | 195 | 128 |
| COc1cc(N2CCN(C)[C@H](C)C2)c(C)cc1Nc1nc(Nc2cccc3c2N(S(C)(=O)=O)CC3)c2cc[nH]c2n1 [Example 107, (R)—N2-(4-(3,4-dimethylpiperazin-1-yl)-2-methoxy-5-methylphenyl)-N4-(1-(methylsulfonyl)indolin-7-yl)-7H-pyrrolo[2,3-d]pyrimidine-2,4-diamine] | 417 | 4.8 | 7.1 | 1960 | 105 | 60.8 |
| COc1cc(N2CCC(N3CCN(C)CC3)CC2)ccc1Nc1ncc(Br)c(Nc2cccc3c2N(S(C)(=O)=O)C(C)(C)C3)n1 [Example 134, 5-bromo-N4-(2,2-dimethyl-1-(methylsulfonyl)indolin-7-yl)-N2-(2-methoxy-4-(4-(4-methylpiperazin-1-yl)piperidin-1-yl)phenyl)pyrimidine-2,4-diamine] | 11.5 | 0.3 | 0.8 |  |  |  |
| CN(C)C1CCN(c2ccc(Nc3ncc(Br)c(Nc4cccc5c4N(S(C)(=O)=O)CC5)n3)c3c2CC(C)(C)O3)CC1 [Example 55, 5-bromo-N^2-(4-(4-(dimethylamino)piperidin-1-yl)-2,2-dimethyl-2,3-dihydrobenzofuran-7-yl)-N^4-(1-(methylsulfonyl)indolin-7-yl)pyrimidine-2,4-diamine] | 64.5 | 7 | 5.82 |  |  |  |
| CN1CCN(C2CCN(c3ccc(Nc4nc(Nc5cccc6c5N(S(C)(=O)=O)CC6)c5cc[nH]c5n4)cc3Cl)CC2)CC1 [Example 80, N^2-(3-chloro-4-(4-(4-methylpiperazin-1-yl)piperidin-1-yl)phenyl)-N^4-(1-(methylsulfonyl)indolin-7-yl)-7H-pyrrolo[2,3-d]pyrimidine-2,4-diamine] | 40.4 | 0.7 | 0.85 |  |  |  |
| CN1CCN(C2CCN(c3ccc(Nc4nc(Nc5cccc6c5N(S(C)(=O)=O)CC6)c5cc[nH]c5n4)cc3F)CC2)CC1 [Example 79, N^2-(3-fluoro-4-(4-(4-methylpiperazin-1-yl)piperidin-1-yl)phenyl)-N^4-(1-(methylsulfonyl)indolin-7-yl)-7H-pyrrolo[2,3-d]pyrimidine-2,4-diamine] | 14 | 0.26 | 0.29 |  |  |  |
| CCN1CCN(C2CCN(c3c(F)cc(Nc4nc(Nc5cccc6c5N(S(C)(=O)=O)CC6)c5cc[nH]c5n4)cc3F)CC2)CC1 [Example 78, N^2-(4-(4-(4-ethylpiperazin-1-yl)piperidin-1-yl)-3,5-difluorophenyl)-N^4-(1-(methylsulfonyl)indolin-7-yl)-7H-pyrrolo[2,3-d]pyrimidine-2,4-diamine] | 99 | 1.5 | 2 |  |  |  |
| COc1cc(N2CCC(N3CCN(C)CC3)CC2)c(C)cc1Nc1ncc(Cl)c(Nc2cccc3c2N(S(C)(=O)=O)CC32CC2)n1 [Example 188, 5-chloro-N2-(2-methoxy-5-methyl-4-(4-(4-methylpiperazin-1-yl)piperidin-1-yl)phenyl)-N4-(1′-(methylsulfonyl)spiro[cyclopropane-1,3′-indolin]-7′-yl)pyrimidine-2,4-diamine] | 0.5 | 0.3 | 0.7 |  |  |  |

More lines, in order of falling IC50 [1], values ahead:

| IC50 [1] [nM] | IC50 [2] [nM] | IC50 [3] [nM] | GI50 [4] [nM] | GI50 [5] [nM] | GI50 [6] [nM] | Compound |
| --- | --- | --- | --- | --- | --- | --- |
| 2490 | 20.7 | 42.8 |  |  |  | COc1cc(-c2cnn(CCN3CCN(C)CC3)c2)ccc1Nc1nc(Nc2cccc3c2N(S(C)(=O)=O)CC3)c2cc[nH]c2n1 [Example 115, N^2-(2-methoxy-4-(1-(2-(4-methylpiperazin-1-yl)ethyl)-1H-pyrazol-4-yl)phenyl)-N^4-(1-(methylsulfonyl)indolin-7-yl)-7H-pyrrolo[2,3-d]pyrimidine-2,4-diamine] |
| 1530 | 17 | 14 | 1400 | 504 | 225 | Cc1cc(Nc2nc(Nc3cccc4c3N(S(C)(=O)=O)CC4)c3cc[nH]c3n2)c(OC(C)C)cc1N1CCC(N2CCN(C)CC2)CC1 [Example 92, N^2-(2-isopropoxy-5-methyl-4-(4-(4-methylpiperazin-1-yl)piperidin-1-yl)phenyl)-N^4-(1-(methylsulfonyl)indolin-7-yl)-7H-pyrrolo[2,3-d]pyrimidine-2,4-diamine] |
| 101 | 17.1 | 8.79 |  |  |  | CN1CCN(C2CCN(c3ccc(Nc4ncc(Br)c(Nc5cccc6c5N(S(C)(=O)=O)CC6)n4)c4c3CC(C)(C)O4)CC2)CC1 [Example 57, 5-bromo-N^2-(2,2-dimethyl-4-(4-(4-methylpiperazin-1-yl)piperidin-1-yl)-2,3-dihydrobenzofuran-7-yl)-N^4-(1-(methylsulfonyl)indolin-7-yl)pyrimidine-2,4-diamine] |
| 82.7 | 0.44 | 0.76 |  |  |  | COc1cc(Nc2nc(Nc3cccc4c3N(S(C)(=O)=O)CC4)c3cc[nH]c3n2)ccc1N1CCC(N2CCN(C)CC2)CC1 [Example 81, N^2-(3-methoxy-4-(4-(4-methylpiperazin-1-yl)piperidin-1-yl)phenyl)-N^4-(1-(methylsulfonyl)indolin-7-yl)-7H-pyrrolo[2,3-d]pyrimidine-2,4-diamine] |
| 16.5 | 0.1 | 0.2 |  |  |  | CN1CCN(C2CCN(c3ccc(Nc4nc(Nc5cccc6c5N(S(C)(=O)=O)CC6)c5cc[nH]c5n4)cc3)CC2)CC1 [Example 194, N2-(4-(4-(4-methylpiperazin-1-yl)piperidin-1-yl)phenyl)-N4-(1-(methylsulfonyl)indolin-7-yl)-7H-pyrrolo[2,3-d]pyrimidine-2,4-diamine] |
| 3 | 1.17 | 0.44 |  |  |  | COc1cc(N2CCC(N3CCN(C)CC3)CC2)ccc1Nc1ncc(Cl)c(Nc2cccc3c2N(S(=O)(=O)CF)CC3)n1 [Example 12, 5-chloro-N^4-(1-((fluoromethyl)sulfonyl)indolin-7-yl)-N^2-(2-methoxy-4-(4-(4-methylpiperazin-1-yl)piperidin-1-yl)phenyl)pyrimidine-2,4-diamine] |
| 1.1 | 0.2 | 0.24 |  |  |  | CN(C)C1CCN(c2c(F)cc(Nc3ncc(Br)c(Nc4cccc5c4N(S(C)(=O)=O)CC5)n3)c3c2CCO3)CC1 [Example 59, 5-bromo-N^2-(4-(4-(dimethylamino)piperidin-1-yl)-5-fluoro-2,3-dihydrobenzofuran-7-yl)-N^4-(1-(methylsulfonyl)indolin-7-yl)pyrimidine-2,4-diamine] |
